Test results as given in US11028074B2, “CD73 inhibitors” (Eli Lilly and Company, priority 2018, dated 2021).
One block for each compound: values may come before it.

Experiments:
[1] = target: T1, CD73 (Homo sapiens, UniProt P21589); assay: LC/MS Based Assay for Measuring CD73 Activity in Human Serum; type: biochemical; parameters: from tissue; host or cells: normal human serum; conditions: concentrations corrected with the fraction unbound, read-out: EC50, inhibition of CD73 activity in human serum
T1 sequence (P21589 27-549): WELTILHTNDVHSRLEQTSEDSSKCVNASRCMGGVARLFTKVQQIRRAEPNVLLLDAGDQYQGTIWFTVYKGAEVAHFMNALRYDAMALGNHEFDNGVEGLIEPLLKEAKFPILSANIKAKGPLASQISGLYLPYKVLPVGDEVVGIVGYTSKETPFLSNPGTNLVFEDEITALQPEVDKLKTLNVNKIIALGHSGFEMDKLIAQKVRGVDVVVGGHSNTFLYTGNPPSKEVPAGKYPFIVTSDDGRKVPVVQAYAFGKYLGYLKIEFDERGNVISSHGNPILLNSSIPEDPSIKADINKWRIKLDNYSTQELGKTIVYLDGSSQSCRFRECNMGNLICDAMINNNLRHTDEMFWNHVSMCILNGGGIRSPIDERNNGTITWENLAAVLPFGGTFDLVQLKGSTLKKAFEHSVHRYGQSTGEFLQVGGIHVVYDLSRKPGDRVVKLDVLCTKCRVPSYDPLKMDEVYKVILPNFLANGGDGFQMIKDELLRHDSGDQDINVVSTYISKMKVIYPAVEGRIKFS
Method: Fresh normal human blood is centrifuged at 1,500 g for 15 minutes at room temperature, and the upper fraction containing serum is collected. […] After incubation on ice for 60 min, […] (50 uM) is added to each well in the plate, and the plate is incubated at room temperature for 15 min. The plate is then placed on dry ice with addition of 200 uL/well of 17.3 TCA followed by shaking at 26 fps for 3 min with a plate-shaking machine (Qiagen). The plate is then centrifuged at 2940 g for 20 min at 4° C. […] After further centrifugation at 2940 g for 20 min at 4° C., 200 ul/well of the supernatant is used for analysis of ^13C10-^15N5-adenosine, ^13C10-^15N5-inosine and ^15N5-hypoxanthine by LC/MS as described above. For EC50 calculations, the concentrations of the CD73 inhibitor in the serum are corrected with the fraction unbound (%) derived from in silico models or experimentally.

[2] = test system: human PBMCs or CD4 cells; assay: T Cell Suppression Assay (rescue of adenosine-mediated inhibition of T cell proliferation); type: cell-based; conditions: for Rescue of T cell proliferation (%): AMP in medium, 68-70 hr
Method: Cells are placed in a 37° C. water bath for 10 min to pre-activate T cells. […] To test compounds using PBMCs, test compounds at various concentrations are prepared in cell normal growth media (125 μL) containing 400-600 μM AMP. […] Treated cells are cultured at 37° C., 5% CO2 for 68-70 hr.
Medium (100 μl) containing CD4 cells is transferred to and filtered through AcroPrep plates to another plate via centrifugation at 1500 g for 2 hr. Filtered medium (50 μl/well) is mixed with the same volume of 80% methanol, 1% NH4OH, and internal standards (250 ng/mL ^13C5-AMP and 250 ng/mL ^13C5-Adenosine) for LC-MS analysis of metabolites.
Treated PBMCs or CD4 cells are collected and stained for Flow Cytometry to quantify T cell proliferation.
Flow data are acquired by BD FACS Verse. Each fluorescence channel is appropriately compensated. The data are processed on FloJo ver. 7.6.5 with the following gating strategy: lymphocytes gated on FSC vs SSC dot plot; viable cells of lymphocytes gated on SSC vs Zombie Aqua dot plot; CD3 cells of viable lymphocytes gated on APC-Cy7 vs Zombie Aqua dot plot1; CD4 cell and CD8 cells of CD3 cells gated on APC vs Pacific Blue dot plot; CD4 and CD8 cells further gated on APC vs CFSE(FITC) and Pacific Blue vs CFSE(FITC) dot plots. Proliferation of CD4 and CD8 cells is analyzed by a proliferation tool.

[3] = test system: CD4^+ T cells; assay: Cytokine Analysis (ELISA); type: cell-based, human
Method: CFSE labeled human PBMCs (600,000 cells/mL) or CD4 cells (500,000 cells/mL) are mixed with Dynabeads® Human T-Activator CD3/CD28 (Gibco, cat #11131D) at a ratio of 1:1 of cell/beads and human IL-2 (60 IU/ml, Roche, cat #: 11011456001). Cells are placed in a 37° C. water bath for 10 min to pre-activate T cells. PBMCs (125 μl/well) or CD4 cells (100 μl/well) are transferred to a 96 well plate (Costar 3799, Corning Inc.). To test compounds using PBMCs, test compounds at various concentrations are prepared in cell normal growth media (125 μL) containing 400-600 μM AMP. To test compounds using CD4 cells, test compounds at various concentrations are prepared in cell normal growth media (100 μL) containing 200-250 μM AMP. Treated cells are cultured at 37° C., 5% CO2 for 68-70 hr.
Medium (160 μl) containing treated PBMCs is transferred to a plate and the remaining medium used for cytokine assay is transferred to AcroPrep 96 plates (AcroPrep 96 Filter plate, Omega 3K NTRL 350 ul well, Pall Life Science Cat #8033) for preparation of samples for LC-MS analysis of metabolites.
Culture medium from treated PBMCs is diluted at 1:7.5, 1:2.5 and 1:50 with 1× ELISA/ELISPOT Diluent from cytokine ELISA kits and analyzed for TNFα using Human TNF alpha ELISA Ready-SET-GO! Kit (eBioscience cat #88-7346-22), IL-1β using Human IL-1β ELISA ready-SET-GO! Kit (2nd generation) (eBioscience, cat #88-7261-22) and IFNγ using Human IFN gamma ELISA ready-SET-GO! Kit (eBioscience, cat #88-7316-22) based manufacturer's manuals.

[4] = target: T2, murine CD73 (Mus musculus, UniProt Q61503); assay: Ex Vivo Target Inhibition Assay (mouse whole blood after oral dosing); type: in vivo; conditions: read-out: Inhibition of AMP conversion to adenosine, Inhibition (%)
T2 construct: from tissue; host or cells: mouse whole blood (heparin) from orally dosed animals
T2 sequence (Q61503 29-551): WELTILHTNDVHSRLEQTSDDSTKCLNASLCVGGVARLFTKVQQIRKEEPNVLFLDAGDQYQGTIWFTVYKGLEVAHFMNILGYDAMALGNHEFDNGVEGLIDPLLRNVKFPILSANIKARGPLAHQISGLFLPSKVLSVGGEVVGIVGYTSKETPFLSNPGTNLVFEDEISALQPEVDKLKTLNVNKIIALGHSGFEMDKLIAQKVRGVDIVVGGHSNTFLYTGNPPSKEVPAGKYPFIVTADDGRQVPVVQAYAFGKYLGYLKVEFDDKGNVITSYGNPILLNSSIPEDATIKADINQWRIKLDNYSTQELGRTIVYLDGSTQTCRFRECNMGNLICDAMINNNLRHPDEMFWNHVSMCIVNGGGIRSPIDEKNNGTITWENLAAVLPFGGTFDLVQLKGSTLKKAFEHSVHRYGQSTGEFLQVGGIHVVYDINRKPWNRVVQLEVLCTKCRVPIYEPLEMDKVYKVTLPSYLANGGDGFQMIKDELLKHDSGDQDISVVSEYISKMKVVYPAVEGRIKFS
Method: The animals (6/group) are dosed orally with each compound formulated in 20% HPBCD (2-hydroxypropyl-β-cyclodextrin), pH 2 after tumors reach to approximately 400 mm^3.

Compound: O=c1[nH]cc(-c2cc([C@H]3CC3(F)F)c(Cl)nn2)c(=O)[nH]1 (single isomer, unassigned) [Example 9]
- EC50 [1]: 297 nM

Compound: Cc1nnc(-c2c[nH]c(=O)[nH]c2=O)cc1[C@H]1C[C@@H]1C(C)C [Example 2, 5-[5-[(1S,2R)-2-isopropylcyclopropyl]-6-methyl-pyridazin-3-yl]-1H-pyrimidine-2,4-dione]
- Adenosine (uM) in the growth medium ([2]; compound 0.00229 uM): 0.28 µM
- Rescue of T cell proliferation (%) ([2]; compound 0.00229 uM): −6%
- Adenosine (uM) in the growth medium ([2]; compound 0.00686 uM): 0.28 µM
- Rescue of T cell proliferation (%) ([2]; compound 0.00686 uM): −3%
- Adenosine (uM) in the growth medium ([2]; compound 0.02058 uM): 0.21 µM
- Rescue of T cell proliferation (%) ([2]; compound 0.02058 uM): −2%
- Adenosine (uM) in the growth medium ([2]; compound 0.06173 uM): 0.15 µM
- Rescue of T cell proliferation (%) ([2]; compound 0.06173 uM): 37%
- Adenosine (uM) in the growth medium ([2]; compound 0.18519 uM): 0.086 µM
- Rescue of T cell proliferation (%) ([2]; compound 0.18519 uM): 95%
- Adenosine (uM) in the growth medium ([2]; compound 0.55556 uM): 0.046 µM
- Rescue of T cell proliferation (%) ([2]; compound 0.55556 uM): 104%
- Adenosine (uM) in the growth medium ([2]; compound 1.66667 uM): 0.027 µM
- Rescue of T cell proliferation (%) ([2]; compound 1.66667 uM): 106%
- Adenosine (uM) in the growth medium ([2]; compound 5.00 uM): 0.017 µM
- Rescue of T cell proliferation (%) ([2]; compound 5.00 uM): 107%
- INF-γ release, INF-γ ([3]; compound 0.003 uM): 34.5 pg/mL
- TNF-α release, TNF-α ([3]; compound 0.003 uM): 386.3 pg/mL
- INF-γ release, INF-γ ([3]; compound 0.008 uM): 29.5 pg/mL
- TNF-α release, TNF-α ([3]; compound 0.008 uM): 419.9 pg/mL
- INF-γ release, INF-γ ([3]; compound 0.025 uM): 51.1 pg/mL
- TNF-α release, TNF-α ([3]; compound 0.025 uM): 557.8 pg/mL
- INF-γ release, INF-γ ([3]; compound 0.074 uM): 59.4 pg/mL
- TNF-α release, TNF-α ([3]; compound 0.074 uM): 782.0 pg/mL
- INF-γ release, INF-γ ([3]; compound 0.222 uM): 146.7 pg/mL
- TNF-α release, TNF-α ([3]; compound 0.222 uM): 1265.5 pg/mL
- INF-γ release, INF-γ ([3]; compound 2.000 uM): 99.5 pg/mL
- TNF-α release, TNF-α ([3]; compound 2.000 uM): 1183.9 pg/mL
- INF-γ release, INF-γ ([3]; compound 6.000 uM): 105.3 pg/mL
- TNF-α release, TNF-α ([3]; compound 6.000 uM): 1985.5 pg/mL
- inhibition at 1 mg/kg ([4]; 1 mg/kg oral): -10.6%
- inhibition at 2.5 mg/kg ([4]; 2.5 mg/kg oral): 25.2%
- inhibition at 6.4 mg/kg ([4]; 6.4 mg/kg oral): 37%
- inhibition at 16 mg/kg ([4]; 16 mg/kg oral): 56.5%
- inhibition at 40 mg/kg ([4]; 40 mg/kg oral): 88.6%
- inhibition at 100 mg/kg ([4]; 100 mg/kg oral): 94.3%

Further compounds by falling EC50 [1], results first:

- EC50 [1]: 212 nM
Compound: CC[C@H]1C[C@@H]1c1cc(-c2c[nH]c(=O)[nH]c2=O)nnc1C#N [Example 22, 6-(2,4-Dioxo-1H-pyrimidin-5-yl)-4-[(1S,2S)-2-ethylcyclopropyl]pyridazine-3-carbonitrile]

- EC50 [1]: 179 nM
Compound: CC(C)[C@H]1C[C@@H]1c1cc(-c2c[nH]c(=O)[nH]c2=O)nnc1Cl (relative stereo) [Example 8, 5-[6-Chloro-5-[rel-(1S,2R)-2-isopropylcyclopropyl]pyridazin-3-yl]-1H-pyrimidine-2,4-dione]

- EC50 [1]: 55 nM
Compound: O=c1[nH]cc(-c2cc([C@H]3C[C@@H]3C(F)F)c(Cl)nn2)c(=O)[nH]1 [Example 10, 5-[6-Chloro-5-[(1S,2S)-2-(difluoromethyl)cyclopropyl]pyridazin-3-yl]-1H-pyrimidine-2,4-dione]
